Measurements taken from publication PMC3937211, “Serine Carboxypeptidase SCPEP1 and Cathepsin A Play Complementary Roles in Regulation of Vasoconstriction via Inactivation of Endothelin-1” (PLoS Genetics, 2014).

How the values were obtained:
Scpep1 = target: T1, Scpep1 (Mus musculus, UniProt Q920A5); experiment: Carboxypeptidase activity of purified recombinant Scpep1-His6 against ET-1; type: biochemical; conditions: pH 6.5 and 7.5, 50 µM ET-1
T1 construct: Scpep1 has a cleavable signal peptide, N-linked glycans, the Ser-Asp-His catalytic triad and is proteolytically processed from a 55 kDa precursor; made in house; host or cells: HT1080 cells (stably transfected), protein purified from the culture medium
T1 sequence (Q920A5 29-452): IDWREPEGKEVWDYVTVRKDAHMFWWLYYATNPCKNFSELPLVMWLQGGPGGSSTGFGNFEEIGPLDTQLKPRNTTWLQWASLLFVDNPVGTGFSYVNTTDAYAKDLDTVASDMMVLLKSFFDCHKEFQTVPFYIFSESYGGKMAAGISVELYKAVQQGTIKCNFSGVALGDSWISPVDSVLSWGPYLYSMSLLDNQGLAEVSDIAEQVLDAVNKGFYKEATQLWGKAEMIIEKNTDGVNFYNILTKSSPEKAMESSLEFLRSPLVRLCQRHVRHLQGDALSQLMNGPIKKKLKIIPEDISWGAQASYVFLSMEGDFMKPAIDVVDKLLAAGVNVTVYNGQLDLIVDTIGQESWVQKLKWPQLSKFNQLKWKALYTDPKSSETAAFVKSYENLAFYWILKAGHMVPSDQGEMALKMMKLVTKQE
Text: (§1) Figure 1 Scpep1 has carboxypeptidase activity against ET-1. A. Carboxypeptidase activity against ET-1 in homogenates of cultured AVSMC from WT, Scpep1 ^−/−, CathA^S190A and Scpep1 ^−/− /CathA^S190A mice as well as from the cells of Scpep1 ^−/− /CathA^S190A mice transiently transfected with pCMV-GFP and pCMV-Scpep1 plasmids. AVSMC after the passage 3 were transfected or not with Scpep1-RGS-His-Tag and pEGFP-C1 plasmids. Forty-eight hours after transfection confluent cells were harvested, homogenized and tested for carboxypeptidase activity using 50 µM ET-1 as a substrate. Data are expressed as means (±S.D.) of 3 independent experiments performed with different cell cultures. * p<0.05 and ** p<0.01 in two-tailed unpaired t-test. B. Carboxypeptidase activity against ET-1 in homogenates of cultured AVSMC from WT mice transfected with Scpep1 and CathA shRNA. […] The amino acid analysis of the reaction mixture determined that Scpep1 cleaves the C-terminal amino acid (Trp21) from ET-1 (not shown). […]
HT1080 cells stably expressing Scpep1-His6 [19] were cultured in DMEM with 0.05% FCS. […] Purity of Scpep1-His6 was monitored by silver staining and Western blotting.
(§2) Carboxypeptidase activity in cultured AVSMC was measured against 50 µM ET-1 as previously described using the method measuring the liberation rate of the C-terminal amino acid of the peptide. […]

[1] = test system: homogenates of cultured AVSMC; experiment: Carboxypeptidase activity against ET-1 in homogenates of cultured AVSMC; type: biochemical, mouse; conditions: 50 µM ET-1
Text: as §1, with “shRNA. AVSMC after the passage 3 were transfected with pRFP-C-RS vectors expressing shRNA for mouse CathA and Scpep1 or non-effective 29-mer scrambled shRNA as indicated. Seventy-two hours after transfection the cells were harvested, and those expressing plasmids enriched by cell-sorting, homogenized and tested for carboxypeptidase activity using 50 µM ET-1 as a substrate. […] C. Carboxypeptidase activity against ET-1 of purified recombinant Scpep1. Scpep1 carrying a His6 tag at the C-terminus was expressed in stably transfected HT1080 cells and purified by affinity chromatography on Ni-NTA resin followed by anion-exchange chromatography as described. Carboxypeptidase activity was assayed with 50 µM ET-1 as a substrate and 0.4–0.8 µg of the purified enzyme in the reaction mixture in 50 mM sodium phosphate/50 mM sodium acetate buffer at pH 5.5, 6.5 and 7.5. Bars show mean values (±S.D.) of 3 independent experiments.” for “shRNA.”
as §2

## endothelin-1 [ET-1]
Scpep1
  carboxypeptidase activity against ET-1 compared with pH 5.5: Lower activity
[1]; AVSMC of CathA^S190A mice, sodium acetate buffer pH 5.4, 30–180 min at 37°C, 3 independent experiments
  carboxypeptidase activity against ET-1: ~10%
[1]; CathA^S190A/Scpep1^−/− mice, pH 5.4, 37°C
  carboxypeptidase activity against ET-1: ~6%
[1]; Scpep1^−/− mice, relative to WT, pH 5.4, 37°C
  carboxypeptidase activity against ET-1: ~70%
